Key:
Assay in all cases: KINOMEscan competition binding
Details in all cases: compound 10.0 µM
ULK3 (human) = ULK3 (human) (UniProt Q6PHR2)
PIP4K2B (human) = PIP4K2B (human) (UniProt P78356)
PTK2 (human) = PTK2 (human) (UniProt Q05397)
ZAP70 (human) = ZAP70 (human) (UniProt P43403)
TNK2 (human) = TNK2 (human) (UniProt Q07912)
ABL2 (human) = ABL2 (human) (UniProt P42684)
STK36 (human) = STK36 (human) (UniProt Q9NRP7)
MINK1 (human) = MINK1 (human) (UniProt Q8N4C8)
BMPR2 (human) = BMPR2 (human) (UniProt Q13873)
AURKB (human) = AURKB (human) (UniProt Q96GD4)
TGFBR1 (human) = TGFBR1 (human) (UniProt P36897)
EPHB4 (human) = EPHB4 (human) (UniProt P54760)
CSK (human) = CSK (human) (UniProt P41240)
PAK6 (human) = PAK6 (human) (UniProt Q9NQU5)
NUAK1 (human) = NUAK1 (human) (UniProt O60285)
ERBB4 (human) = ERBB4 (human) (UniProt Q15303)
MAP3K5 (human) = MAP3K5 (human) (UniProt Q99683)
STK24 (human) = STK24 (human) (UniProt Q9Y6E0)
PIP5K1A (human) = PIP5K1A (human) (UniProt Q99755)
FLT1 (human) = FLT1 (human) (UniProt P17948)
RPS6KA4 KD2 (human) = RPS6KA4 KD2 (human) (UniProt O75676)
ULK1 (human) = ULK1 (human) (UniProt O75385)
RIOK3 (human) = RIOK3 (human) (UniProt O14730)
CSNK2A2 (human) = CSNK2A2 (human) (UniProt P19784)
CDK3 (human) = CDK3 (human) (UniProt Q00526)
DCLK2 (human) = DCLK2 (human) (UniProt Q8N568)
WEE1 (human) = WEE1 (human) (UniProt P30291)
PRKAA1 (human) = PRKAA1 (human) (UniProt Q13131)
RPS6KA3 KD1 (human) = RPS6KA3 KD1 (human) (UniProt P51812)
CSNK2A1 (human) = CSNK2A1 (human) (UniProt P68400)
FER (human) = FER (human) (UniProt P16591)
MELK (human) = MELK (human) (UniProt Q14680)
EPHA6 (human) = EPHA6 (human) (UniProt Q9UF33)
MAP2K1 (human) = MAP2K1 (human) (UniProt Q02750)
STK38L (human) = STK38L (human) (UniProt Q9Y2H1)
PRKD3 (human) = PRKD3 (human) (UniProt O94806)
MAP3K10 (human) = MAP3K10 (human) (UniProt Q02779)
CDK7 (human) = CDK7 (human) (UniProt P50613)
CSNK1G2 (human) = CSNK1G2 (human) (UniProt P78368)
ROS1 (human) = ROS1 (human) (UniProt P08922)

CDK3 (human), sequence (Q00526 whole entry, looked up): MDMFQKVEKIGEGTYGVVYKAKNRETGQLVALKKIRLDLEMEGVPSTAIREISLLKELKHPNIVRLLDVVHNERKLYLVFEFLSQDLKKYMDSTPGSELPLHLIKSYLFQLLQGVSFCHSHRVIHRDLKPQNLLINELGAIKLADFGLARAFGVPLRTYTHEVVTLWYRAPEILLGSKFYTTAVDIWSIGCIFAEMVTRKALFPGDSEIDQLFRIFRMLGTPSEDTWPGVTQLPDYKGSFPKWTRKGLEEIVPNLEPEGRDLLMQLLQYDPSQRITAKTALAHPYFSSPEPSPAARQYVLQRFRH
DCLK2 (human), sequence (Q8N568 whole entry, looked up): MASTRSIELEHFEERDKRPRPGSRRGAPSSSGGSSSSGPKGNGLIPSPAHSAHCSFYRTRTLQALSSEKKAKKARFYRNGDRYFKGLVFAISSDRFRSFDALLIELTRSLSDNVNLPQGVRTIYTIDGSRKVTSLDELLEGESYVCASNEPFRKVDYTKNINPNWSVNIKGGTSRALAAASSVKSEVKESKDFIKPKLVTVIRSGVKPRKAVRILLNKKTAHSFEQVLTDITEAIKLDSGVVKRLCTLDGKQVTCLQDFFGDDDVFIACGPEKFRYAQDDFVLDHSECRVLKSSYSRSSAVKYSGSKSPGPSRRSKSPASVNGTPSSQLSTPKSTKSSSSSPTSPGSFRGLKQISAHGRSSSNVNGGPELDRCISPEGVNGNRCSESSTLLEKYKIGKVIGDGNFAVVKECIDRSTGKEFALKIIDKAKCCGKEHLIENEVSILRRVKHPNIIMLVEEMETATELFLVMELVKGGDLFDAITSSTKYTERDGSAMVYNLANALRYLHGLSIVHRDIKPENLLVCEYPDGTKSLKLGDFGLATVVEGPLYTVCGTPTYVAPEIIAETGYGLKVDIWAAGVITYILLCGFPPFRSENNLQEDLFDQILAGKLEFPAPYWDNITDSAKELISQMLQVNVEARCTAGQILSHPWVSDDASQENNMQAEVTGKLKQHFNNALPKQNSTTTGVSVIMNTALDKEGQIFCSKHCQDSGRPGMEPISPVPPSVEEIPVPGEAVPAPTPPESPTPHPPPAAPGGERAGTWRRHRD
ULK1 (human), sequence (O75385 whole entry, looked up): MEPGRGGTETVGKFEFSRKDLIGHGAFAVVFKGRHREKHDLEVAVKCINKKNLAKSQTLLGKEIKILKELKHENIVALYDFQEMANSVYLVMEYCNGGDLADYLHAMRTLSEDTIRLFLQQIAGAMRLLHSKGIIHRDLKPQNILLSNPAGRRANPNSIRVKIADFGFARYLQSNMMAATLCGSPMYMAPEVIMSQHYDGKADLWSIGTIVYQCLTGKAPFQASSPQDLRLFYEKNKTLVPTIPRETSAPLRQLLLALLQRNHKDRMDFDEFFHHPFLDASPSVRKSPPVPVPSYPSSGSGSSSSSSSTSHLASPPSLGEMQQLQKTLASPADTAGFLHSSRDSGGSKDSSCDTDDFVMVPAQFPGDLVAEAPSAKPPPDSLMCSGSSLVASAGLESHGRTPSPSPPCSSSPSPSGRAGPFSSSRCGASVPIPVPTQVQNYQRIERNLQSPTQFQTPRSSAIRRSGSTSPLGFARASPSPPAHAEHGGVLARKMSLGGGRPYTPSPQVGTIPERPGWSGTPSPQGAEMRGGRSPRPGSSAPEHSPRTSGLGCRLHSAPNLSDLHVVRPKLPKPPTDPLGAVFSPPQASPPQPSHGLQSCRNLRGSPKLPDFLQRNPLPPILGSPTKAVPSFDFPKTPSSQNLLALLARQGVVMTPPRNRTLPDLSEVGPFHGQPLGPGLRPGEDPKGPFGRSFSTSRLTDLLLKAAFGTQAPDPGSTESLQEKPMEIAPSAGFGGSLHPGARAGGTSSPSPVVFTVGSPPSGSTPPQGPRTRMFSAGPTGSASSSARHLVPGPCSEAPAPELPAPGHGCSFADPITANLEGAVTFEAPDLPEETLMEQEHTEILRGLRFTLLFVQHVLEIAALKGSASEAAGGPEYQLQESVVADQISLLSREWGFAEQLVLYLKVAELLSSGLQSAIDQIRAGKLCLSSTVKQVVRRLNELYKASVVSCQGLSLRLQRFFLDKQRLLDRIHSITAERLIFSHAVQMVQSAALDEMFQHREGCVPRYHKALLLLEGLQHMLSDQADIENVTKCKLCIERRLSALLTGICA
STK38L (human), sequence (Q9Y2H1 whole entry, looked up): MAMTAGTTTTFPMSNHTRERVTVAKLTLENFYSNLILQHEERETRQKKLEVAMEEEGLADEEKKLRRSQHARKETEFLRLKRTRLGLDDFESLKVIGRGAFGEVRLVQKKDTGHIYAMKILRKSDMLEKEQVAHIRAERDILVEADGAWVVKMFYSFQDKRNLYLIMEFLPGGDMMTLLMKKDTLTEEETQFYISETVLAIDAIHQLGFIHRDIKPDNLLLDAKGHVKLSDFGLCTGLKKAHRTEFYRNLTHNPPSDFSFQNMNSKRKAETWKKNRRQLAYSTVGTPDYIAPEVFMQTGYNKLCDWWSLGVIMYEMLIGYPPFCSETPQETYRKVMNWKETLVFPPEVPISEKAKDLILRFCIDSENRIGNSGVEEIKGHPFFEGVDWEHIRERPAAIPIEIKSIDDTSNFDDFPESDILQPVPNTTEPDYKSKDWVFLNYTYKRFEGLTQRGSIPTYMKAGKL
ERBB4 (human), sequence (Q15303 whole entry, looked up): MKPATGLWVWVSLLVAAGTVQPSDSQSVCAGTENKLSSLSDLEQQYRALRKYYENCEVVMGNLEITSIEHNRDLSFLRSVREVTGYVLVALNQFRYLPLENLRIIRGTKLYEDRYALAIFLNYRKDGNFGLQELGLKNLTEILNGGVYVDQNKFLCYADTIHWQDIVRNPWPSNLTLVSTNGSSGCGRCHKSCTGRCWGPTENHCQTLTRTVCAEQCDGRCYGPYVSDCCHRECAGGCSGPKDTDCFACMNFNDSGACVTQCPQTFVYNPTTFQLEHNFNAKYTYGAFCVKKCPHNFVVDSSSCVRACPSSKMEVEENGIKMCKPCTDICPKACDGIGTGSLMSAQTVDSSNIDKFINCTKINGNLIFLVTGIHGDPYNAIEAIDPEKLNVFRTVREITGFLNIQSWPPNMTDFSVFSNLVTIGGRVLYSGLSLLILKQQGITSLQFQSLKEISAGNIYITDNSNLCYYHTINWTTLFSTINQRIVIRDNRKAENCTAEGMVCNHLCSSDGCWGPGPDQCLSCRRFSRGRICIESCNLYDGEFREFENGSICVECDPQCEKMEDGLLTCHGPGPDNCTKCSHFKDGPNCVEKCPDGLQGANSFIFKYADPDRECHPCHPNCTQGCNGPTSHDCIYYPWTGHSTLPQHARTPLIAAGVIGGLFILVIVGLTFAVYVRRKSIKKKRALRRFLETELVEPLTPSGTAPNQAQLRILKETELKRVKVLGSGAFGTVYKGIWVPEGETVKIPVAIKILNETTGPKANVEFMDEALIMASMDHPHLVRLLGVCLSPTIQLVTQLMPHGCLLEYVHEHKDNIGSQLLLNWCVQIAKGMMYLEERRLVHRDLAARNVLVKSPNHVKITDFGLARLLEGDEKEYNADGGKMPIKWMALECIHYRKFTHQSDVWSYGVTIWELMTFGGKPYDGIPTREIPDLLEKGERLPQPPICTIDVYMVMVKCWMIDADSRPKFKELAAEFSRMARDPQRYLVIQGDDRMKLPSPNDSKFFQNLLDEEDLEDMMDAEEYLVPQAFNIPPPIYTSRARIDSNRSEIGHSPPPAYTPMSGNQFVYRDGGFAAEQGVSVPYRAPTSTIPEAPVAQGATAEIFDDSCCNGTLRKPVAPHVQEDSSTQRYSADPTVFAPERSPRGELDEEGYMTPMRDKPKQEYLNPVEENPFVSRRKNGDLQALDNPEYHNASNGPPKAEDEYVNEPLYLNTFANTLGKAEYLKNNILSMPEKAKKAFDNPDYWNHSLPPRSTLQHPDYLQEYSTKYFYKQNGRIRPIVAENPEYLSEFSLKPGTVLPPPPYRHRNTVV
PRKAA1 (human), sequence (Q13131 whole entry, looked up): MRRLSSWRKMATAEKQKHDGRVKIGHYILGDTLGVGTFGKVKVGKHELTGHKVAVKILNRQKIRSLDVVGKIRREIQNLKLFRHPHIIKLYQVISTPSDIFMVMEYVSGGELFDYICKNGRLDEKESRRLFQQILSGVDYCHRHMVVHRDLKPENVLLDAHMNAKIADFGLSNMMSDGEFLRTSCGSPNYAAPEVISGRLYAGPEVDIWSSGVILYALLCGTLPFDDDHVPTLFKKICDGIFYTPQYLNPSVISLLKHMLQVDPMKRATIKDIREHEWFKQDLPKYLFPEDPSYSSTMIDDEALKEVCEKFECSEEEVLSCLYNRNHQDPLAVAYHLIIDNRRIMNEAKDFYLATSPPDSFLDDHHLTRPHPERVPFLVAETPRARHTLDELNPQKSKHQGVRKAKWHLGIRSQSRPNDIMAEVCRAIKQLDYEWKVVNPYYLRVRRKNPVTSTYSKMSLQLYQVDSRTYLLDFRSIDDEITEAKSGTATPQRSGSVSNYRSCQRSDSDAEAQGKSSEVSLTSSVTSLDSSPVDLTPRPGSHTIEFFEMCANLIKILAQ
CSK (human), sequence (P41240 whole entry, looked up): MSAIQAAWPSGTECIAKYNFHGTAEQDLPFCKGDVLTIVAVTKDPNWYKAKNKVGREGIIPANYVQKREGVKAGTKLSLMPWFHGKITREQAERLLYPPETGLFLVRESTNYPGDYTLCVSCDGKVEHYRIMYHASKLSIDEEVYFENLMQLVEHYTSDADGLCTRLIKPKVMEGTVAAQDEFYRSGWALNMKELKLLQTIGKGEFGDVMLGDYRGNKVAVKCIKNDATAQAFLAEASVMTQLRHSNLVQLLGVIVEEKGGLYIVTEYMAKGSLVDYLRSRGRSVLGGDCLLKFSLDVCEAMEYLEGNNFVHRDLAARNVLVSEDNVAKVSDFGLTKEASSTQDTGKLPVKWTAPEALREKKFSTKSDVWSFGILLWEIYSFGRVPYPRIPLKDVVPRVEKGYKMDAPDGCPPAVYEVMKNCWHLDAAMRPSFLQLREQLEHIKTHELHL

Row | Structure (SMILES) | kinase still bound, per cent of control (ULK3 (human)) | kinase still bound, per cent of control (PIP4K2B (human)) | kinase still bound, per cent of control (PTK2 (human)) | kinase still bound, per cent of control (ZAP70 (human)) | kinase still bound, per cent of control (TNK2 (human)) | kinase still bound, per cent of control (ABL2 (human)) | kinase still bound, per cent of control (STK36 (human)) | kinase still bound, per cent of control (MINK1 (human)) | kinase still bound, per cent of control (BMPR2 (human)) | kinase still bound, per cent of control (AURKB (human)) | kinase still bound, per cent of control (TGFBR1 (human)) | kinase still bound, per cent of control (EPHB4 (human)) | kinase still bound, per cent of control (CSK (human)) | kinase still bound, per cent of control (PAK6 (human)) | kinase still bound, per cent of control (NUAK1 (human)) | kinase still bound, per cent of control (ERBB4 (human)) | kinase still bound, per cent of control (MAP3K5 (human)) | kinase still bound, per cent of control (STK24 (human)) | kinase still bound, per cent of control (PIP5K1A (human)) | kinase still bound, per cent of control (FLT1 (human)) | also measured
1 | COc1cc(C(=O)NC2CCN(C)CC2)ccc1Nc1ncc2c(n1)N(C1CCCC1)CCC(=O)N2C(C)C | 100% | 100% | 100% | 100% | 100% | 100% | 100% | 100% | 100% | 100% | 100% | 100% | 100% | 100% | 100% | 100% | 100% | 100% | 6.4% | 100% | kinase still bound, per cent of control (RPS6KA4 KD2 (human)): 100%; kinase still bound, per cent of control (ULK1 (human)): 100%; kinase still bound, per cent of control (RIOK3 (human)): 100%; kinase still bound, per cent of control (CSNK2A2 (human)): 100%; kinase still bound, per cent of control (CDK3 (human)): 100%; kinase still bound, per cent of control (DCLK2 (human)): 100%; kinase still bound, per cent of control (WEE1 (human)): 100%; kinase still bound, per cent of control (PRKAA1 (human)): 100%; kinase still bound, per cent of control (RPS6KA3 KD1 (human)): 100%; kinase still bound, per cent of control (CSNK2A1 (human)): 100%; kinase still bound, per cent of control (FER (human)): 100%; kinase still bound, per cent of control (MELK (human)): 100%; kinase still bound, per cent of control (EPHA6 (human)): 100%; kinase still bound, per cent of control (MAP2K1 (human)): 100%; kinase still bound, per cent of control (STK38L (human)): 100%; kinase still bound, per cent of control (PRKD3 (human)): 100%; kinase still bound, per cent of control (MAP3K10 (human)): 100%; kinase still bound, per cent of control (CDK7 (human)): 100%; kinase still bound, per cent of control (CSNK1G2 (human)): 100%; kinase still bound, per cent of control (ROS1 (human)): 100%
2 | C=CC(=O)Nc1cc(NC(=O)c2ccc(C)c(NC(=O)c3ccno3)c2)cc(C(F)(F)F)c1 | 97% | 100% | 91% | 54% | 84% | 32% | 100% | 84% | 100% | 100% | 96% | 87% | 71% | 100% | 100% | 100% | 100% | 100% | 100% | 100% | kinase still bound, per cent of control (RPS6KA4 KD2 (human)): 94%; kinase still bound, per cent of control (ULK1 (human)): 100%; kinase still bound, per cent of control (RIOK3 (human)): 76%; kinase still bound, per cent of control (CSNK2A2 (human)): 81%; kinase still bound, per cent of control (CDK3 (human)): 97%; kinase still bound, per cent of control (DCLK2 (human)): 100%; kinase still bound, per cent of control (WEE1 (human)): 100%; kinase still bound, per cent of control (PRKAA1 (human)): 100%; kinase still bound, per cent of control (RPS6KA3 KD1 (human)): 96%; kinase still bound, per cent of control (CSNK2A1 (human)): 100%; kinase still bound, per cent of control (FER (human)): 100%; kinase still bound, per cent of control (MELK (human)): 100%; kinase still bound, per cent of control (EPHA6 (human)): 93%; kinase still bound, per cent of control (MAP2K1 (human)): 87%; kinase still bound, per cent of control (STK38L (human)): 88%; kinase still bound, per cent of control (PRKD3 (human)): 100%; kinase still bound, per cent of control (MAP3K10 (human)): 100%; kinase still bound, per cent of control (CDK7 (human)): 91%; kinase still bound, per cent of control (CSNK1G2 (human)): 100%; kinase still bound, per cent of control (ROS1 (human)): 100%

From the kinase profiling compilation of Christmann-Franck et al. (2016)
